Laboratory results published in ChEMBL document CHEMBL3639216, “Compounds and method for treatment of HIV” (2015).

Biological target: Gag-Pol polyprotein (Human immunodeficiency virus type 1 group M subtype A (isolate U455)(HIV-1), UniProt P24740)
Test: Integrase Assay: The effect of each compound on HIV integrase activity was assayed using the HIV-1 Integrase Assay Kit version 2.0, catalogue number EZ-1700 obtained from XpressBio Life Science Products. Immediately prior to the start of the assay, both compounds were dissolved in dimethyl sulfoxide (DMSO) and used immediately in the HIV integration assay. The assay was performed according to the instructions listed by the manufacturer (XpressBio Life Science Products, Maryland, USA). In brief, the required streptavidin-coated strip wells were coated with DS oligo and placed overnight at 4° C. The plates were then incubated with integrase and followed by the addition of test articles at the desired concentration. The plates were developed using the supplied HRP antibody and TMB peroxidase substrate as per the manufacturer's instructions. The reactions were stopped with TMB stop solution and immediately read (<10 min) using a VICTOR XXX. The absorbance of each well was read at 450 nm for 0.5 sec.

Chain of Gag-Pol polyprotein (P24740 1141-1428 limits assumed): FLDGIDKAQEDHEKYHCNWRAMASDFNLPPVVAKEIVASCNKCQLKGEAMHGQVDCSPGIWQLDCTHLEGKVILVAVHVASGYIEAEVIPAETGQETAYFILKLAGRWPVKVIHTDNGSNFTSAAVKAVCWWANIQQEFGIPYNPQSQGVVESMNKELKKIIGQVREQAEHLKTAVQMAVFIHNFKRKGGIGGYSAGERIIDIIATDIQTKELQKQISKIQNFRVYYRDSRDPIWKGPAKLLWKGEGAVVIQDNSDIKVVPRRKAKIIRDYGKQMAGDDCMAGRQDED

SMILES	IC50 [µM]
Cn1cnc(-c2nnc(Cc3ccc(F)cc3)o2)c(O)/c1=N/O	58.7
Cn1nc(-c2nnc(Cc3ccc(F)cc3)o2)/c(=N/O)c2ncccc21	23.9
